Experimental data from the supplement of paper PMC8617591.

Tests used:
[1] = tested on: Mycobacterium tuberculosis Erdman (autoluminescent); assay: total FIC50 (Loewe) at 50% inhibition, three-drug combination (log2); higher = more antagonistic
Protocol: (§1)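 DiaMOND equipotent three-drug combination dose responses (10 doses, 1.5- or 2-fold spacing, centred on IC90) against autoluminescent M. tuberculosis Erdman in 8 in vitro models. Read-out is OD600, or luminescence for the intracellular and dormancy models, normalised to untreated wells. Hill-fit Einf, AUC25 and GRinf are potency metrics; FIC50 and FIC90 are total Loewe fractional inhibitory concentrations as log2 (negative = synergy).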

[2] = tested on: Mycobacterium tuberculosis Erdman (autoluminescent); assay: total FIC90 (Loewe) at 90% inhibition, three-drug combination (log2); higher = more antagonistic
Protocol: as §1

[3] = tested on: Mycobacterium tuberculosis Erdman (autoluminescent); assay: AUC25, normalised area under dose response up to IC25 (three-drug combination) (fraction (0-1)); higher = more potent at low dose
Protocol: as §1

[4] = tested on: Mycobacterium tuberculosis Erdman (autoluminescent); assay: GRinf, maximum normalised growth rate inhibition (three-drug combination) (unitless (-1 to 1)); higher = less effect (negative = killing)
Protocol: as §1

[5] = tested on: Mycobacterium tuberculosis Erdman (autoluminescent); assay: Einf, fitted maximum growth inhibition of three-drug combination (fraction); higher = stronger maximal inhibition
Protocol: as §1

CC[C@@H](CO)NCCN[C@@H](CC)CO [ethambutol] + COc1c(N2C[C@@H]3CCCN[C@@H]3C2)c(F)cc2c(=O)c(C(=O)O)cn(C3CC3)c12 [moxifloxacin] + O=[N+]([O-])c1cn2c(n1)OC[C@@H](OCc1ccc(OC(F)(F)F)cc1)C2 [pretomanid]
Conditions | AUC25, [3] | Einf, [5] | GRinf, [4] | total FIC50, [1] | total FIC90, [2]
in vitro model: acidic pH 5.7, time point: constant (~7 days, model-specific) | 0.124 | 0.718 | -0.388 | 0.434 | –
in vitro model: acidic pH 5.7, time point: terminal (~4-5 doublings, model-specific) | 0.0788 | 0.939 | -0.335 | 1.03 | 0.811
in vitro model: intracellular J774, time point: constant = terminal | – | 0.999 | -0.573 | – | -1.12

Conditions | AUC25, [3] | Einf, [5] | GRinf, [4] | total FIC50, [1] | total FIC90, [2]
in vitro model: butyrate, time point: constant (~7 days, model-specific) | 0.0791 | 0.94 | -0.0315 | 0.478 | –
in vitro model: butyrate, time point: terminal (~4-5 doublings, model-specific) | 0.0604 | 0.968 | -0.039 | 0.42 | 0.0737
in vitro model: cholesterol 0.05 mM, time point: constant (~7 days, model-specific) | 0.106 | 0.669 | -0.247 | 0.987 | –
in vitro model: cholesterol 0.05 mM, time point: terminal (~4-5 doublings, model-specific) | 0.116 | 0.927 | -0.457 | 0.0988 | 1.38
in vitro model: cholesterol-high 0.2 mM, time point: constant (~7 days, model-specific) | 0.0657 | 0.89 | -0.187 | 0.925 | –
in vitro model: cholesterol-high 0.2 mM, time point: terminal (~4-5 doublings, model-specific) | 0.0467 | 1 | -0.609 | 1.12 | 1.04
in vitro model: dormancy (butyrate + nitrate, low O2), time point: constant (~7 days, model-specific) | 0.116 | 0.835 | 0.349 | 0.37 | –
in vitro model: dormancy (butyrate + nitrate, low O2), time point: terminal (~4-5 doublings, model-specific) | 0.126 | 0.986 | -0.335 | -0.414 | 0.703
in vitro model: standard 7H9 glycerol, time point: constant = terminal | 0.0753 | 0.974 | -0.251 | 0.294 | 0.564
in vitro model: valerate, time point: constant (~7 days, model-specific) | 0.0943 | 0.862 | -0.00882 | -0.131 | –
in vitro model: valerate, time point: terminal (~4-5 doublings, model-specific) | 0.0516 | 0.929 | 0.0316 | 0.26 | -0.798

CC[C@@H](CO)NCCN[C@@H](CC)CO [ethambutol] + NC(=O)c1cnccn1 [pyrazinamide] + CO[C@H]1/C=C/O[C@@]2(C)Oc3c(C)c(O)c4c(O)c(c(/C=N/N5CCN(C6CCCC6)CC5)c(O)c4c3C2=O)NC(=O)/C(C)=C\C=C\[C@H](C)[C@H](O)[C@@H](C)[C@@H](O)[C@@H](C)[C@H](OC(C)=O)[C@@H]1C [rifapentine]
Conditions | AUC25, [3] | Einf, [5] | GRinf, [4] | total FIC50, [1] | total FIC90, [2]
in vitro model: acidic pH 5.7, time point: constant (~7 days, model-specific) | 0.0954 | 0.885 | -0.165 | -0.399 | –
in vitro model: acidic pH 5.7, time point: terminal (~4-5 doublings, model-specific) | 0.0652 | 0.98 | -0.191 | -0.0475 | –
in vitro model: intracellular J774, time point: constant = terminal | – | 0.977 | -0.419 | – | -1.88

Conditions | AUC25, [3] | Einf, [5] | GRinf, [4] | total FIC50, [1] | total FIC90, [2]
in vitro model: butyrate, time point: constant (~7 days, model-specific) | 0.0808 | 0.911 | 0.0172 | 0.221 | –
in vitro model: butyrate, time point: terminal (~4-5 doublings, model-specific) | 0.0667 | 0.958 | 0.025 | 0.309 | -0.154
in vitro model: cholesterol 0.05 mM, time point: constant (~7 days, model-specific) | 0.116 | 0.659 | -0.834 | – | –
in vitro model: cholesterol 0.05 mM, time point: terminal (~4-5 doublings, model-specific) | 0.11 | 0.886 | -0.315 | 1.58 | –
in vitro model: cholesterol-high 0.2 mM, time point: constant (~7 days, model-specific) | 0.0322 | 0.941 | -0.414 | 1.2 | –
in vitro model: cholesterol-high 0.2 mM, time point: terminal (~4-5 doublings, model-specific) | 0.0395 | 0.999 | -0.679 | 1.46 | 1.21
in vitro model: dormancy (butyrate + nitrate, low O2), time point: constant (~7 days, model-specific) | 0.0922 | 0.87 | 0.301 | -0.0129 | –
in vitro model: dormancy (butyrate + nitrate, low O2), time point: terminal (~4-5 doublings, model-specific) | 0.116 | 0.984 | -0.233 | 0.284 | 1.88
in vitro model: standard 7H9 glycerol, time point: constant = terminal | 0.0407 | 0.883 | 0.165 | 0.158 | –
in vitro model: valerate, time point: constant (~7 days, model-specific) | 0.0408 | 0.821 | 0.114 | 0.105 | –
in vitro model: valerate, time point: terminal (~4-5 doublings, model-specific) | 0.0268 | 0.909 | 0.11 | 0.338 | -0.692
